Assay results: patent US20170349638A1, “COMPANION DIAGNOSTIC TOOL FOR PEPTIDOMIMETIC MACROCYCLES” (AILERON Therapeutics, Inc., priority 2016, published 2017)
Where a SMILES comes first, the peptide text is derived from it. Bridges are numbered along the chain shown (N, C = ends). [ ]: non-standard residue; d: D form. Phe(4-COOH) = N[C@@H](Cc1ccc(C(=O)O)cc1)C(=O)O; R8 = C=CCCCCCC[C@@](C)(N)C(=O)O; Cba = N[C@@H](CC1CCC1)C(=O)O; S5 = C=CCCC[C@](C)(N)C(=O)O; Nle = CCCC[C@H](N)C(=O)O

Columns and labels:
[1] = Circular dichroism (CD) analysis of alpha-helicity; format: physicochemical; settings: 222 nm; for Molar Ellipticity 50% TFE (222 in 50% TFE): CD buffer with 50% TFE; for Molar Ellipticity 50% TFE (222 in 50% TFE) / Molar Ellipticity Benign (222 in 0% TFE): 0.05 mg/ml, 4° C.; for Molar Ellipticity Benign (222 in 0% TFE): benign CD buffer (20 mM phosphoric acid, pH 2); for Molar Ellipticity TFE − Molar Ellipticity Benign: difference 50% TFE minus benign buffer
Description: A Peltier temperature controller was used to maintain temperature control of the optical cell. Results are expressed as mean molar ellipticity [θ] […] Peptide concentrations were determined by amino acid analysis. Stock solutions of peptides were prepared in benign CD buffer (20 mM phosphoric acid, pH 2). The stocks were used to prepare peptide solutions of 0.05 mg/ml in either benign CD buffer or CD buffer with 50% trifluoroethanol (TFE) for analyses in a 10 mm pathlength cell. […] The average of six scans was reported.

[2] = tested on: MCF-7 breast cancer xenograft; test: MCF-7 breast cancer xenograft study; format: in vivo, female nude (Crl:NU-Foxn1nu) mice; settings: for mice died during treatment: 10 mice per group
Description: A negative control stapled peptide. […] Slow release 90 day 0.72 mg 17β-estradiol pellets (Innovative Research, Sarasota, Fla.) were implanted subcutaneously (sc) on the nape of the neck one day prior to tumor cell implantation (Day −1). On Day 0, MCF-7 tumor cells were implanted sc in the flank of female nude (Crl:NU-Foxn1nu) mice. On Day 18, the resultant sc tumors were measured using calipers to determine their length and width and the mice were weighed. The tumor sizes were calculated using the formula (length×width^2)/2 and expressed as cubic millimeters (mm^3). Mice with tumors smaller than 85.3 mm^3 or larger than 417.4 mm^3 were excluded from the subsequent group formation. Thirteen groups of mice, 10 mice per group, were formed by randomization such that the group mean tumor sizes were essentially equivalent (mean of groups±standard deviation of groups=180.7±17.5 mm^3).
This formulation was prepared once for the duration of the study. This vehicle was used as the vehicle control in the subsequent study.
Each group was assigned to a different treatment regimen. Group 1, as the vehicle negative control group, received the vehicle administered at 8 mL/kg body weight intravenously (iv) three times per week from Days 18-39. […] Group 4 received 6.7 mg/kg SP249 as an iv injection three times per week. […] Group 9 received 30 mg/kg SP252 as an iv injection three times per week.
During the dosing period the mice were weighed and tumors measured 1-2 times per week.

[3] = molecular target: MDM2 (Homo sapiens, UniProt Q00987); test: Competitive fluorescence polarization assay for MDM2; format: binding
Description: Dilute 1 mM (in 100% DMSO) of FAM labeled linear peptide with DMSO to 100 μM (dilution 1:10). Then, dilute from 100 μM to 10 μM with water (dilution 1:10) and then dilute with FP buffer from 10 μM to 40 nM (dilution 1:250). This is the working solution which will be a 10 nM concentration in well (dilution 1:4). Keep the diluted FAM labeled peptide in the dark until use. • 4. […] Dilute 10 mM (in 100% DMSO) with DMSO to 5 mM (dilution 1:2). Then, dilute from 5 mM to 500 μM with H2O (dilution 1:10) and then dilute with FP buffer from 500 μM to 20 μM (dilution 1:25). […] Add 10 μl of 10 nM (4×) of FAM labeled peptide into each well and incubate for 3 hr to read.

[4] = 30 mg/kg iv three times per week

MDM2, sequence (Q00987 1-125): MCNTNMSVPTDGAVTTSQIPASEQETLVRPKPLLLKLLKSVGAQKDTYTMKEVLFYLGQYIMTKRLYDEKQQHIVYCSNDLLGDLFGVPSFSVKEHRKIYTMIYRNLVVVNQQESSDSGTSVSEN

Row | SMILES | Molar Ellipticity 50% TFE (222 in 50% TFE) [1] [deg cm^2dmol^−1] | Molar Ellipticity Benign (222 in 0% TFE) [1] [deg cm^2dmol^−1] | Molar Ellipticity TFE − Molar Ellipticity Benign [1] [deg cm^2dmol^−1] | also measured
1 | CC(=O)N[C@@H](CC(C)C)C(=O)N[C@H](C(=O)N[C@@H](Cc1ccccc1)C(=O)N[C@]1(C)CCCCCCC=CCCC[C@@](C)(C(=O)N[C@@H](C)C(=O)N[C@@H](C)C(=O)N[C@@H](C)C(=O)N[C@H](C)C(N)=O)NC(=O)[C@H](CC(C)C)NC(=O)[C@H](CCC(N)=O)NC(=O)[C@H](C)NC(=O)[C@H](Cc2c[nH]c3ccccc23)NC(=O)[C@H](Cc2ccc(O)cc2)NC(=O)[C@H](C)NC1=O)[C@@H](C)O (single isomer, unassigned) [compound 230] | −17974 | −213.2 | −17760.8 | 
2 | CC(=O)N[C@@H](CC(C)C)C(=O)N[C@H](C(=O)N[C@@H](Cc1ccccc1)C(=O)N[C@]1(C)CCCCCCC=CCCC[C@@](C)(C(=O)N[C@@H](CO)C(=O)N[C@@H](C)C(=O)N[C@@H](C)C(N)=O)NC(=O)[C@H](CC2CCC2)NC(=O)[C@H](CCC(N)=O)NC(=O)[C@H](C)NC(=O)[C@H](Cc2c[nH]c3ccccc23)NC(=O)[C@H](Cc2ccc(O)cc2)NC(=O)[C@H](CCC(=O)O)NC1=O)[C@@H](C)O [SP154] |  |  |  | % BW Change ([2]; 30 mg/kg 3x/wk iv, mice): +5.7%; No. with ≧10% BW Loss ([2]; 30 mg/kg 3x/wk iv, mice): 0/10; No. with ≧20% BW Loss or death ([2]; 30 mg/kg 3x/wk iv, mice): 0/10; tolerability of dosing regimen [2, 4]: well-tolerated; No. with ≧10% BW Loss ([2]; 40 mg/kg 2x/wk iv, mice): 0/10; No. with ≧20% BW Loss or death ([2]; 40 mg/kg 2x/wk iv, mice): 2/10; tolerability of dosing regimen ([2]; 40 mg/kg iv twice a week): not tolerable; mice died during treatment ([2]; 40 mg/kg iv twice a week): 2 mice
3 | CC[C@H](C)[C@H](NC(=O)[C@H](C)NC(=O)[C@H](C)NC(=O)[C@]1(C)CCCC=CCCCCCC[C@@](C)(NC(=O)[C@H](Cc2ccccc2)NC(=O)[C@@H](NC(=O)[C@H](CC(C)C)NC(C)=O)[C@@H](C)O)C(=O)N[C@@H](CCC(=O)O)C(=O)N[C@@H](Cc2ccc(C(=O)O)cc2)C(=O)N[C@@H](Cc2c[nH]c3ccccc23)C(=O)N[C@@H](C)C(=O)N[C@@H](CCC(N)=O)C(=O)N[C@@H](CC2CCC2)C(=O)N1)C(=O)N[C@H](C)C(N)=O [SP249] (Ac-LTF[R8]E[Phe(4-COOH)]WAQ[Cba][S5]AAI[dA]-NH2; staple 4-11) |  |  |  | mice died during treatment ([2]; […] iv three times per week): 4 mice
4 | CC(=O)N[C@@H](CC(C)C)C(=O)N[C@H](C(=O)N[C@@H](C)C(=O)N[C@]1(C)CCCCCCC=CCCC[C@@](C)(C(=O)N[C@@H](CO)C(=O)N[C@@H](C)C(=O)N[C@@H](C)C(N)=O)NC(=O)[C@H](CC2CCC2)NC(=O)[C@H](CCC(N)=O)NC(=O)[C@H](C)NC(=O)[C@H](Cc2c[nH]c3ccccc23)NC(=O)[C@H](Cc2ccc(O)cc2)NC(=O)[C@H](CCC(=O)O)NC1=O)[C@@H](C)O [SP252] |  |  |  | body weight loss or deaths [2, 4]: no body weight loss or deaths noted
5 | CC(=O)N[C@@H](CC(C)C)C(=O)N[C@H](C(=O)N[C@@H](Cc1ccccc1)C(=O)N[C@]1(C)CCCCCCn2cc(nn2)CCC[C@@](C)(C(=O)N[C@@H](C)C(=O)N[C@@H](C)C(=O)N[C@@H](C)C(=O)N[C@@H](C)C(=O)N[C@@H](C)C(=O)N[C@H](C)C(N)=O)NC(=O)[C@H](CC(C)C)NC(=O)[C@H](CCC(N)=O)NC(=O)[C@H](C)NC(=O)[C@H](Cc2c[nH]c3ccccc23)NC(=O)[C@H](Cc2ccc(O)cc2)NC(=O)[C@H](C)NC1=O)[C@@H](C)O [SP450, Ac-LTF$4rn6AYWAQL$4a5AAAAAa-NH2] |  |  |  | Ki [3]: 100 to 1000 nM
6 | CC(=O)N[C@@H](CC(C)C)C(=O)N[C@H](C(=O)N[C@@H](Cc1ccccc1)C(=O)N[C@]1(C)CCCCCCC=CCCC[C@@](C)(C(=O)N[C@@H](CO)C(=O)N[C@@H](C)C(=O)N[C@@H](Cc2ccccc2)C(N)=O)NC(=O)[C@H](CC(C)C)NC(=O)[C@H](CCC(N)=O)NC(=O)[C@H](C)NC(=O)[C@H](Cc2c[nH]c3ccccc23)NC(=O)[C@H](Cc2ccc(O)cc2)NC(=O)[C@H](C)NC1=O)[C@@H](C)O [compound 7] (Ac-LTF[R8]AYWAQL[S5]SAF-NH2; staple 4-11) | −19921.4 | 124 | −20045.4 | 
7 | CC(=O)N[C@@H](CC(C)C)C(=O)N[C@H](C(=O)N[C@@H](Cc1ccccc1)C(=O)N[C@]1(C)CCCCCCC=CCCC[C@@](C)(C(=O)N[C@@H](CO)C(=O)N[C@@H](C)C(=O)N[C@@H](C)C(N)=O)NC(=O)[C@H](CC(C)C)NC(=O)[C@H](CCC(N)=O)NC(=O)[C@H](C)NC(=O)[C@H](Cc2c[nH]c3ccccc23)NC(=O)[C@H](Cc2ccc(O)cc2)NC(=O)[C@H](C)NC1=O)[C@@H](C)O [compound 11] (Ac-LTF[R8]AYWAQL[S5]SAA-NH2; staple 4-11) | −16623.4 | −398.2 | 16225.2 | 
8 | CCCC[C@H](NC(=O)[C@H](CCC(N)=O)NC(=O)[C@H](CCC(N)=O)NC(=O)[C@]1(C)CCCC=CCCCCCC[C@@](C)(NC(=O)[C@H](Cc2ccccc2)NC(C)=O)C(=O)N[C@@H](C)C(=O)N[C@@H](Cc2ccc(O)cc2)C(=O)N[C@@H](Cc2c[nH]c3ccccc23)C(=O)N[C@@H]([C@@H](C)O)C(=O)N[C@@H](C)C(=O)N[C@@H](CC(C)C)C(=O)N1)C(=O)N[C@@H](C(N)=O)C(C)C [compound 41] (Ac-F[R8]AYWTAL[S5]QQ[Nle][dV]-NH2; staple 2-9) | −21319.4 | −909 | 20410.4 | 
9 | CC(=O)N[C@@H](CC(C)C)C(=O)N[C@H](C(=O)N[C@@H](Cc1ccccc1)C(=O)N[C@]1(C)CCCCCCC=CCCC[C@@](C)(C(=O)N[C@@H](Cc2c[nH]cn2)C(=O)N[C@@H](Cc2c[nH]cn2)C(=O)N[C@@H](CC(C)C)C(=O)N[C@H](C)C(N)=O)NC(=O)[C@H](CC(C)C)NC(=O)[C@H](CCC(N)=O)NC(=O)[C@H](C)NC(=O)[C@H](Cc2c[nH]c3ccccc23)NC(=O)[C@H](Cc2ccc(O)cc2)NC(=O)[C@H](C)NC1=O)[C@@H](C)O [compound 43] (Ac-LTF[R8]AYWAQL[S5]HHL[dA]-NH2; staple 4-11) | −18247.4 | −15334.5 | 2912.9 | 
10 | CCCC[C@H](NC(=O)[C@H](C)NC(=O)[C@H](C)NC(=O)[C@]1(C)CCC/C=C/CCCCCC[C@@](C)(NC(=O)[C@H](Cc2ccccc2)NC(=O)[C@@H](NC(=O)[C@H](CC(C)C)NC(C)=O)[C@@H](C)O)C(=O)N[C@@H](C)C(=O)N[C@@H](Cc2ccc(O)cc2)C(=O)N[C@@H](Cc2c[nH]c3ccccc23)C(=O)N[C@@H](C)C(=O)N[C@@H](CCC(N)=O)C(=O)N[C@@H](CC(C)C)C(=O)N1)C(=O)N[C@@H](C)C(N)=O [compound 69] | −21509.7 | −102.6 |  | 
11 | CC[C@H](C)[C@H](NC(=O)[C@H](C)NC(=O)[C@H](C)NC(=O)[C@]1(C)CCC/C=C/CCCCCC[C@@](C)(NC(=O)[C@H](Cc2ccccc2)NC(=O)[C@@H](NC(=O)[C@H](CC(C)C)NC(C)=O)[C@@H](C)O)C(=O)N[C@@H](C)C(=O)N[C@@H](Cc2ccc(O)cc2)C(=O)N[C@@H](Cc2c[nH]c3ccccc23)C(=O)N[C@@H](C)C(=O)N[C@@H](CCC(N)=O)C(=O)N[C@@H](CC(C)C)C(=O)N1)C(=O)N[C@H](C)C(N)=O [compound 71] | −17957 | −121.2 | −17835.9 | 
12 | CC(=O)N[C@@H](CC(C)C)C(=O)N[C@H](C(=O)N[C@@H](Cc1ccccc1)C(=O)N[C@]1(C)CCCCCCC=CCCC[C@@](C)(C(=O)N[C@@H](C)C(=O)N[C@@H](C)C(=O)N[C@@H](C)C(=O)N[C@@H](C)C(=O)N[C@H](C)C(N)=O)NC(=O)[C@H](CC(C)C)NC(=O)[C@H](CCC(N)=O)NC(=O)[C@H](C)NC(=O)[C@H](Cc2c[nH]c3ccccc23)NC(=O)[C@H](Cc2ccc(O)cc2)NC(=O)[C@H](C)NC1=O)[C@@H](C)O [compound 233] | −19032.6 | −477.9 | −18554.7 | 
